In patent US20100317625A1, “NOVEL SULFONAMIDOMETHYLP[…] BETA-LACTAMASE” (priority 2006, published 2010):
Converted amounts (≈) assume the structure as drawn.

Assays:
[1] = tested on: CL 5701 (Pseudomonas aeruginosa; Pa AmpC); assay: microbe, parasite or virus in culture; details: read-out: Imipenem MIC
Text: (§1) The assay determines the concentration of a β-lactamase inhibitor required to reduce the MIC of a β-lactam antibiotic by one-half, one-quarter, one-eighth, one-sixteenth and one-thirty-second against strains of bacteria normally resistant to the antibiotic in question. This is accomplished by titrating the inhibitor (BLI=beta-lactamase inhibitor) in a serial dilution across a microtiter plate while at the same time titrating the antibiotic (AB) in a serial dilution down the microtiter plate and then inoculating the plate with the bacterial strain in question and allowing the bacteria to grow up overnight. Each well in this microplate checkerboard contains a different combination of concentrations of the inhibitor and the antibiotic allowing a full determination of any synergy between the two.
(§2) 100 μL is serially diluted from row A to row G of each MIC 2000 plate. […] 100 μL is removed from each well in row G of each MIC 2000 plate. […] 100 μL is serially diluted from column 1 to column 11 of each MIC 2000 plate. […] Plates are left at 37° C. for about 20 hours and scored for growth by eye. […]
(§3) Plates are scored for growth in each well. End points (MICs) where there is no growth in each row are determined and the concentrations of AB and the test BLI at each of these growth negative wells are then used to determine levels of synergy.

[2] = tested on: CL 6188 (Acinetobacter baumanii; Oxa40); assay: microbe, parasite or virus in culture; details: Acinetobacter baumannii, read-out: Imipenem MIC
Text: as §1, §2, §3

Question: `C[C@@H](O)[C@H]1C(=O)N2C(C(=O)O)=C(SCCN=CN)C[C@H]12` [Imipenem] was tested. Which MIC [1] did it give?
Answer: The MIC was 20 µg/mL (≈ 66.8 µM).

Question: What about the MIC [2] of the same compound?
Answer: Its MIC is 128 µg/mL (≈ 428 µM).
